A short description of data set [1]: Selectivity index, ratio of IC50 for dark toxicity against human MDA-MB-231 cells to IC50 for phototoxicity against human MDA-MB-231 cells irradiated with 2 J/cm^2 of light dose. It is filed as cell-based. The conditions noted are these: read-out: Ratio IC50.
The test system of data set [2] is MDA-MB-231. Kind of data set: Dark toxicity against human MDA-MB-231 cells assessed as cell viability after 72 hrs by MTT assay. It is filed as functional, cell-based. The conditions noted are these: MDA-MB-231, 72 h. On the technique in general: Tetrazolium dyes change colour on reduction, which living cells bring about.
The subject of data set [3] is MDA-MB-231. Kind of data set: Phototoxicity against human MDA-MB-231 cells assessed as cell viability incubated for 1 hr followed by irradiated with 2 J/cm^2 of light dose measured after 72 hrs by MTT assay. The conditions noted are these: MDA-MB-231, light or radiation study. It is filed as functional, cell-based.
Data set [4] has as its system DNA. Kind of data set: Induction of DNA damage in Escherichia coli pBR322 DNA assessed as supercoiled DNA irradiated with 15 J/cm^2 UV light dose relative to control. The format is nucleic-acid assay.
The subject of data set [5] is DNA. Kind of data set: Induction of DNA damage in Escherichia coli pBR322 DNA assessed as supercoiled DNA relative to control. It is filed as nucleic-acid assay.
The test system of data set [6] is DNA. Nature of the data set: Induction of DNA damage in Escherichia coli pBR322 DNA assessed as open circular DNA irradiated with 7.5 J/cm^2 UV light dose relative to control. It is filed as nucleic-acid assay.
Data set [7] has as its system DNA. Nature of the data set: Induction of DNA damage in Escherichia coli pBR322 DNA assessed as open circular DNA relative to control. The format is nucleic-acid assay.
The subject of data set [8] is DNA. Kind of data set: Induction of DNA damage in Escherichia coli pBR322 DNA assessed as supercoiled DNA irradiated with 7.5 J/cm^2 UV light dose relative to control. It is filed as nucleic-acid assay.
For data set [9], the system named is DNA. Kind of data set: Induction of DNA damage in Escherichia coli pBR322 DNA assessed as open circular DNA irradiated with 15 J/cm^2 UV light dose relative to control. The format is nucleic-acid assay.
Data set [10] can be described thus: Induction of superoxide anion generation irradiated with 560 nm LED light. The format is functional.
Data set [11] is described as follows: Induction of singlet oxygen in phosphate buffer assessed as RNO bleaching at pH 7.3 irradiated with 440 nm LED light by spectrophotometry. It is filed as functional.
Data set [12] relates to T-24. Kind of data set: Phototoxicity against human T24 cells assessed as cell viability incubated for 1 hr followed by irradiated with 2 J/cm^2 of light dose measured after 24 hrs by resazurin assay. The format is functional, cell-based. The conditions noted are these: T-24, light or radiation study.
The next data set has as its system HCC1954. Nature of the data set: Phototoxicity against human HCC1954 cells assessed as cell viability incubated for 1 hr followed by irradiated with 2 J/cm^2 of light dose measured after 24 hrs by resazurin assay. Conditions: HCC1954, light or radiation study. The format is functional, cell-based. (The colour change of resazurin is a common sign of viable cells or microbes.)

For data set [13], the system named is MDA-MB-231. Kind of data set: Induction of reactive oxygen species production in human MDA-MB-231 cells assessed as decrease in thiol formation incubated for 1 hr followed by irradiated with 2 J/cm^2 of light dose after 24 hrs by DTNB assay. The format is functional, cell-based. Conditions: time 25.0 hrs, TDE = time-dependent effect.
For data set [14], the system named is MDA-MB-231. Nature of the data set: Induction of reactive oxygen species production in human MDA-MB-231 cells assessed as increase in hydrogen peroxide production incubated for 1 hr followed by irradiated with 2 J/cm^2 of light dose by CM-H2DCFDA dye based fluorescence assay. It is filed as functional, cell-based.
Data set [15] relates to MDA-MB-231. Nature of the data set: Induction of apoptosis in human MDA-MB-231 cells assessed as pyknotic nuclei at IC50 measured after 24 hrs by Hoechst staining based microscopic analysis. It is filed as functional.
Data set [16] deals with T-24. Nature of the data set: Induction of apoptosis in human T24 cells assessed as necrotic cells at IC50 followed by irradiated with 2 J/cm^2 of light dose after 24 hrs annexin-V-PI staining based flow cytometry. The format is functional, cell-based. For orientation: In flow cytometry, cells or beads pass a laser one at a time.
Data set [17] relates to T-24. Nature of the data set: Induction of apoptosis in human T24 cells assessed as apoptotic cells at IC50 followed by irradiated with 2 J/cm^2 of light dose after 24 hrs annexin-V-PI staining based flow cytometry. It is filed as functional, cell-based.
The test system of data set [18] is MDA-MB-231. Kind of data set: Induction of apoptosis in human MDA-MB-231 cells assessed as chromatin condensation and fragmentation at IC50 measured after 24 hrs by Hoechst staining based microscopic analysis. It is filed as functional.

SMILES strings stand for the structures. Activity calls are given as the source filed them. The rule behind the calls is not given here.

Consider `CCOC(=O)c1ccc2n1CCCc1cnc(Nc3ccccc3)nc1-2`, for which the selectivity ratio in [1] was greater than 9.2. Further, the IC50 – broadly, the concentration at which inhibition is half-maximal – was greater than 50 µM with MDA-MB-231 [2] and 5.45 µM in the data set on MDA-MB-231 [3].

With `CC(C)OC(=O)c1ccc2n1CCc1cnc(NC3CCCC3)nc1-2`, the selectivity ratio in data set [1] was greater than 3.7. Moreover, the IC50 in the data set with MDA-MB-231 [2] was greater than 50 µM; with MDA-MB-231 [3], 13.4 µM.

As to `CC(C)OC(=O)c1ccc2n1CCc1cnc(NC3CCCCC3)nc1-2`, the Activity in the data set with DNA [4] stood at 36.6%; with DNA [5], 81.3%; with DNA [6], 40.3%; with DNA [7], 18.7%; with DNA [8] it was 59.7%; in the data set on DNA [9] it was 63.4%. Also, the selectivity ratio in data set [1] is greater than 4. Also, the IC50 in the data set with MDA-MB-231 [2] was greater than 50 µM; in the data set with MDA-MB-231 [3] it was 12.5 µM. Besides, the result in data set [10] was Active.

Take `c1cc2n(c1)CCc1cnc(NC3CCCCC3)nc1-2`: the selectivity ratio in [1] is greater than 16.7. The IC50 in the data set on MDA-MB-231 [2] is greater than 50 µM; in the data set with MDA-MB-231 [3] it was 3 µM.

`CCOC(=O)c1ccc2n1CCc1cnc(NC3CCCCC3)nc1-2`: the outcome (in data set [11]; in the data set on MDA-MB-231 [14]; in the data set on T-24 [16]; with T-24 [17]; in [10]) was Active. Moreover, the Activity in the data set with DNA [4] is 83.5%; in the data set on DNA [5], 83.4%; with MDA-MB-231 [13], “Tde”; in the data set with DNA [6], 21.6%; in the data set with DNA [7], 16.6%; in the data set on DNA [8], 78.4%. Moreover, the Activity came out at 86.2% in the data set with MDA-MB-231 [15], 16.5% with DNA [9] and 83.4% in the data set on MDA-MB-231 [18]. The IC50 is 0.96 µM with T-24 [12], 0.9 µM with HCC1954, 1.74 µM in the data set with MDA-MB-231 [2] and 0.82 µM in the data set on MDA-MB-231 [3]. Also, the selectivity ratio in [1] turned out to be 2.1.

Regarding `CC(=O)Nc1ncc2c(n1)-c1ccc(C(=O)OC(C)C)n1CCC2`, in data set [1], the selectivity ratio is greater than 2.9. Further, the IC50 was greater than 50 µM with MDA-MB-231 [2] and 17.2 µM in the data set on MDA-MB-231 [3].

Take `CC(C)OC(=O)c1ccc2n1CCCc1cnc(NC3CCCC3)nc1-2`: in data set [1], the selectivity ratio was greater than 8.7. Also, the values for the IC50 in the data set with MDA-MB-231 [2] and in the data set on MDA-MB-231 [3] were greater than 50 µM and 5.76 µM, respectively.

Take `c1cc2n(c1)CCc1cnc(NC3CCCC3)nc1-2`: in data set [1], the selectivity ratio came to 1.1. For the same compound, the IC50 worked out at 0.91 µM in the data set with MDA-MB-231 [2] and 0.86 µM in the data set with MDA-MB-231 [3].

Consider `CC(C)OC(=O)c1ccc2n1CCc1cnc(N)nc1-2`, for which the selectivity ratio in data set [1] worked out at 0.8. In addition, the figures for the IC50 with MDA-MB-231 [2] and with MDA-MB-231 [3] were 11.9 µM and 14.5 µM, respectively.

Consider `CCOC(=O)c1ccc2n1CCCc1cnc(N)nc1-2`, for which the IC50 in the data set with MDA-MB-231 [2] and in the data set on MDA-MB-231 [3] was greater than 50 µM in each case.

Turning to `CCOC(=O)c1ccc2n1CCc1cnc(NC3CCCC3)nc1-2`, the IC50 in the data set on MDA-MB-231 [2] and in the data set with MDA-MB-231 [3] was greater than 50 µM each time.

Regarding `Nc1ncc2c(n1)-c1cccn1CC2`, the selectivity ratio in data set [1] was greater than 7.3. Moreover, the IC50 in the data set on MDA-MB-231 [2] was greater than 50 µM; in the data set with MDA-MB-231 [3], 6.81 µM.

With `CC(=O)Nc1ncc2c(n1)-c1ccc(C(=O)OC(C)C)n1CC2`, the selectivity ratio in data set [1] was greater than 3.8. Besides, the IC50 in the data set on MDA-MB-231 [2] was greater than 50 µM; with MDA-MB-231 [3], 13.1 µM.

Take `CC(=O)Nc1ncc2c(n1)-c1cccn1CC2`: the selectivity ratio in data set [1] is greater than 3.4. Further, the IC50 in the data set on MDA-MB-231 [2] is greater than 50 µM; in the data set on MDA-MB-231 [3], 14.8 µM.

As to `CCOC(=O)c1ccc2n1CCc1cnc(NC(C)=O)nc1-2`, in data set [1], the selectivity ratio was greater than 7. Also, the figures for the IC50 in the data set on MDA-MB-231 [2] and in the data set with MDA-MB-231 [3] were greater than 6.25 µM and 0.9 µM, respectively.

For the compound `CC(C)OC(=O)c1ccc2n1CCCc1cnc(N)nc1-2`, the selectivity ratio in data set [1] came to 1. For the same compound, the IC50 with MDA-MB-231 [2] came out at 5.87 µM; in the data set on MDA-MB-231 [3] it was 5.76 µM.

On to `CCOC(=O)c1ccc2n1CCCc1cnc(NC3CCCC3)nc1-2`, for which the selectivity ratio in data set [1] was 1.5. Moreover, the IC50 in the data set with MDA-MB-231 [2] came out at 1.41 µM; with MDA-MB-231 [3], 0.9 µM.

With `CC(C)OC(=O)c1ccc2n1CCCc1cnc(NC3CCCCC3)nc1-2`, the Activity in the data set on DNA [4] came to 50.1%; in the data set with DNA [5], 61.5%; with DNA [6] it was 49.5%; in the data set with DNA [7], 38.5%; in the data set with DNA [8], 50.5%; in the data set on DNA [9] it was 49.9%. In addition, the selectivity ratio in [1] is greater than 13.3. Besides, the IC50 with MDA-MB-231 [2] is greater than 50 µM; in the data set on MDA-MB-231 [3], 3.75 µM. Also, the result in [10] was Active.

`CC(C)OC(=O)c1ccc2n1CCCc1cnc(Nc3ccccc3)nc1-2`: the selectivity ratio in [1] was greater than 3.5. The IC50 was greater than 50 µM in the data set with MDA-MB-231 [2] and 14.3 µM in the data set on MDA-MB-231 [3].

Regarding `c1ccc(Nc2ncc3c(n2)-c2cccn2CC3)cc1`, the selectivity ratio in data set [1] was greater than 9. Besides, the IC50 with MDA-MB-231 [2] is greater than 50 µM; with MDA-MB-231 [3], 5.55 µM.

For the compound `CCOC(=O)c1ccc2n1CCCc1cnc(NC(C)=O)nc1-2`, the selectivity ratio in data set [1] is 19.1. For the same compound, the IC50 with MDA-MB-231 [2] came out at 27.9 µM; with MDA-MB-231 [3], 1.46 µM.

As to `CCOC(=O)c1ccc2n1CCCc1cnc(NC3CCCCC3)nc1-2`, the result (in data set [11]; with MDA-MB-231 [14]; with T-24 [16]; with T-24 [17]; in data set [10]) was Active. Besides, the Activity is 74.7% in the data set with DNA [4]; 86.2% with DNA [5]; “Tde” in the data set on MDA-MB-231 [13]; 23.9% in the data set on DNA [6]; 13.8% in the data set on DNA [7]; 76.1% in the data set with DNA [8]. Also, the Activity in the data set on MDA-MB-231 [15] came out at 61.5%; in the data set on DNA [9], 25.3%; in the data set with MDA-MB-231 [18], 81.3%. The IC50 with T-24 [12] amounted to 0.9 µM; with HCC1954, 1.5 µM; with MDA-MB-231 [2], 5.44 µM; in the data set on MDA-MB-231 [3], 0.45 µM. Also, in data set [1], the selectivity ratio was 12.1.

For the compound `CC(C)OC(=O)c1ccc2n1CCc1cnc(Nc3ccccc3)nc1-2`, the IC50 in the data set on MDA-MB-231 [2] and with MDA-MB-231 [3] was greater than 50 µM in each case.

The values above are taken from ChEMBL document CHEMBL5137014, “Insight on pyrimido[5,4-g]indolizine and pyrimido[4,5-c]pyrrolo[1,2-a]azepine systems as promising photosensitizers on malignant cells” (Eur J Med Chem, 2022).
